Patent US10568828B2, “Peptide having hair growth-promoting activity and use thereof” (CAREGEN CO., LTD., priority 2016, dated 2020)
Ends that are not written are not given here.

Experiments:
Format in all cases: cell-based
bFGF = bFGF RT-PCR; conditions: human hair follicle dermal papilla cells, 24 hours
Procedure: (§1) Human hair follicle dermal papilla cells were seeded at a density of 4×10^5 cells/well on 6-well plates, followed by incubation overnight. After changing into serum-free medium, the cells were treated with the peptides, followed by incubation for 24 hours, and then the wells were harvested to isolate RNA. After RNA quantification, cDNA synthesis was conducted using the cDNA synthesis kit (Intron, Korea), followed by PCR using PCR premix (Intron, Korea) and respective KGF, bFGF, and VEGF primers, and then electrophoresis was performed on 5% agarose gel to compare the mRNA expression levels of the growth factors for each sample treatment conditions.

keratin-14 = assay: Keratin-14 RT-PCR; conditions: human hair follicle dermal papilla cells, 24 hours
Procedure: as §1, with “5×10^5” for “4×10^5”, “keratin” for “respective KGF, bFGF, and VEGF”, “levels” for “levels of the growth factors”, “respective” for “each”

TGF-β1 = TGF-β1 RT-PCR; conditions: human hair follicle dermal papilla cells, 24 hours
Procedure: as §1, with “separate” for “isolate”, “TGF-β1” for “respective KGF, bFGF, and VEGF”, “levels” for “levels of the growth factors”

Bax = Bax Western blot; conditions: human hair follicle dermal papilla cells, 24 hours
Procedure: (§2) Human hair follicle dermal papilla cells were seeded at a density of 4×10^5 cells/well on 6-well plate, followed by incubation overnight. After changing into serum-free medium, the cells were treated with the peptides, followed by incubation for 24 hours, and then the wells were harvested to prepare cell lysates. Western blotting was performed using Bcl-2 and Bax antibodies (Santa Cruz Biotechnology, USA) to compare protein expression patterns.

ERK = assay: p-ERK Western blot; conditions: human hair follicle dermal papilla cells, 15 and 30 minutes
Procedure: (§3) Human hair follicle dermal papilla cells were seeded at a density of 4×10^5 cells/well on 6-well plates, followed by incubation overnight. After changing into serum-free medium, the cells were treated with the peptides, followed by incubation for 15 and 30 minutes, and then the wells were harvested to prepare cell lysates. Western blotting was performed using PI3K antibodies (Santa Cruz Biotechnology, USA) and phospho-ERK antibody (Cell Signaling Technology, USA) to compare protein expression patterns.

PI3K = PI3K Western blot; conditions: human hair follicle dermal papilla cells, 15 and 30 minutes
Procedure: as §3

β-catenin = assay: β-Catenin activation test (Western blot of nuclear protein); conditions: human hair follicle dermal papilla cells, 15 and 30 minutes, Western blot of nuclei
Procedure: Human hair follicle dermal papilla cells were seeded at a density of 4×10^5 cells/well on 6-well plates, followed by incubation overnight. After changing into serum-free medium, the cells were treated with the peptides, followed by incubation for 15 and 30 minutes, and then the wells were harvested to isolate nuclear and cytoplasmic proteins. Western blotting was performed using β-catenin (Santa Cruz Biotechnology, USA) to compare β-catenin expression patterns in nuclei.

Bcl-2 = Bcl-2 Western blot; conditions: human hair follicle dermal papilla cells, 24 hours
Procedure: as §2

[1] = system: Human hair follicle dermal papilla cells; assay: DPC proliferation assay (MTT); conditions: serum-free medium, 3 days incubation, absorbance 550 nm
Procedure: Human hair follicle dermal papilla cells were seeded at a density of 2×10^3 cells/well on 96-well plates, followed by incubation overnight. After changing into serum-free medium, the cells were treated with the peptides, followed by incubation for 3 days, and then the wells were treated with 4 mg/ml MTT solution, followed by reaction for 4 hours. The resulting formazan was solubilized with DNSO, and then the absorbance was measured at 550 nm using a microplate reader.

KGF = KGF RT-PCR; conditions: human hair follicle dermal papilla cells, 24 hours
Procedure: as §1

VEGF = VEGF RT-PCR; conditions: human hair follicle dermal papilla cells, 24 hours
Procedure: as §1

MSX2 = MSX2 RT-PCR; conditions: human hair follicle dermal papilla cells, 24 hours
Procedure: as §1, with “MSX2” for “respective KGF, bFGF, and VEGF”, “levels” for “levels of the growth factors”

Substance	mRNA expression of bFGF (bFGF)	mRNA expression of keratin-14 (keratin-14)	mRNA expression of TGF-β1 (TGF-β1)	expression of the apoptosis-related protein Bax (Bax)	ERK phosphorylation (ERK)	PI3K expression (PI3K)	nuclear translocation due to the increase in activity of β-catenin (β-catenin)	expression of the apoptosis inhibiting protein Bcl-2 (Bcl-2)	growth of human hair follicle dermal papilla cells [1]	mRNA expression of KGF (KGF)	mRNA expression of VEGF (VEGF)	mRNA expression of MSX2 (MSX2)
Arg-Arg-Lys-Ile (RRKI) [SEQ ID NO: 1]	increased	increased	inhibited	decrease	increase	increase	stimulated	increase	stimulated in a dose-dependent manner	increased	–	–
Ile-Tyr-Phe-Tyr (IYFY) [SEQ ID NO: 2]	–	–	inhibited	–	increase	increase	stimulated	–	stimulated in a dose-dependent manner	–	increased	stimulated
KKFIQQVYLAI [SEQ ID NO: 3]	increased	–	–	decrease	increase	increase	stimulated	increase	stimulated in a dose-dependent manner	–	increased	stimulated
